Experimental data reported in US20240293351A1, “METHODS OF ADMINISTERING SYNTHETIC TRITERPENOIDS” (REATA PHARMACEUTICALS HOLDINGS, LLC, priority 2020, published 2024).

Assays:
[1] = Pharmacokinetic study 402-C-1102 in patients with type 2 diabetes and stage 3b/4 CKD (24-h urine); format: in vivo, human; conditions: 20 mg once daily 56 days
[2] = BEACON 24-hour ABPM / 24-hr urine collection sub-study; format: in vivo, human
Source text: A subset of the BEACON patients consented to additional 24-hour assessments including ambulatory blood pressure monitoring (ABPM) and 24-hour urine collections. An independent Events Adjudication Committee (EAC), blinded to study treatment assignment, evaluated whether renal events, cardiovascular events, and neurological events met the pre-specified definitions of the primary and secondary endpoints. An IDMC, consisting of external clinical experts supported by an independent statistical group, reviewed unblinded safety data throughout the study and made recommendations as appropriate.
A subset of patients consented to additional 24-hr assessments (sub-study) of ambulatory blood pressure monitoring (ABPM) and 24-hr urine collection at selected visits. […] Also of note, reductions in serum magnesium were not associated with renal loss of magnesium.

[3] = human, in vivo, po
[4] = Thorough QT Study in healthy volunteers; format: in vivo, human; conditions: 6 days
Experimental: Intensive blood pressure monitoring was employed in a separate Thorough QT Study, which was conducted in healthy volunteers.

[5] = BEACON post-hoc review of EAC case packets for heart failure events within first four weeks; format: in vivo, human
Experimental: The first scheduled post-baseline assessment in BEACON was at Week 4. Since many of the heart failure events occurred prior to Week 4, the clinical database provides limited information to characterize these patients. Post-hoc review of the EAC case packets for heart failure cases that occurred prior to Week 4 was performed to assess clinical, vitals, laboratory, and imaging data collected at the time of the first heart failure event (Tables 13 and 14).
Baseline central laboratory values from the clinical database were compared to local laboratory values obtained on admission for heart failure that were included in the EAC packets.

[6] = Open label dose-ranging study 402-C-0902 in type 2 diabetic patients with stage 3b-4 CKD; format: in vivo, human; design: ΔSBP, change from baseline / ΔDBP, change from baseline: unit not given beside the values
[7] = 2.5 mg once daily 85 days, CKD Stage 3b/4, N = 14
[8] = 2.5 mg once daily 85 days, CKD Stage 3b, N = 10
[9] = 2.5 mg once daily 85 days, CKD Stage 4, N = 4
[10] = 5 mg once daily 85 days, CKD Stage 3b/4, N = 24
[11] = 5 mg once daily 85 days, CKD Stage 3b, N = 19
[12] = 5 mg once daily 85 days, CKD Stage 4, N = 5
[13] = 10 mg once daily 85 days, CKD Stage 3b/4, N = 24

In the case of `COC(=O)[C@]12CCC(C)(C)C[C@H]1[C@H]1C(=O)C=C3[C@@]4(C)C=C(C#N)C(=O)C(C)(C)[C@@H]4CC[C@@]3(C)[C@]1(C)CC2` [Bardoxolone methyl, methyl-2-cyano-3,12-dioxooleana-1,9-dien-28-oic acid], the “24-h Urinary Sodium, WK 8 Δ from baseline, mean” value ([1]; CKD Stage 3b, N = 9) was −12 mmol/24 h, the “24-h Urine Volume, WK 8 Δ from baseline, mean” value ([1]; CKD Stage 3b, N = 9) was 355 mL and the “24-h Urinary Sodium, WK 8 Δ from baseline, mean” value ([1]; CKD Stage 4, N = 6) was −89 mmol/24 h. The “24-h Urine Volume, WK 8 Δ from baseline, mean” value ([1]; CKD Stage 4, N = 6) was -610 mL, the “Urinary Magnesium, WK4 Δ from baseline, mean” value ([2]; n = 40) was −0.9 mmol/24 h and the “Urinary Magnesium, WK4, mean” value ([2]; n = 43) was 6.0 mmol/24 h. For the same compound, the “Urinary Potassium, WK4 Δ from baseline, mean” value ([2]; n = 57) was −7 mmol/24 h, the “Urinary Sodium, WK4 Δ from baseline, mean” value ([2]; n = 57) was −27 mmol/24 h and the “Urinary Potassium, WK4, mean” value ([2]; n = 61) was 52 mmol/24 h. The “Urinary Sodium, WK4, mean” value ([2]; n = 61) was 140 mmol/24 h, the “24-hour Urine Volume, WK4 Δ from baseline, mean” value ([2]; n = 63) was -247 mL and the “24-hour Urine Volume, WK4, mean” value ([2]; n = 64) was 1792 mL. For the same compound, the “Serum Magnesium, WK4, mean” value ([2]; n = 77) was 1.53 mEq/L, the “Serum Magnesium, WK4 Δ from baseline, mean” value ([2]; n = 77) was −0.21 mEq/L and the “Serum Potassium, WK4 Δ from baseline, mean” value ([2]; n = 77) was 0.10 mmol/L. The “Serum Sodium, WK4, mean” value ([2]; n = 77) was 140.3 mmol/L, the “Serum Sodium, WK4 Δ from baseline, mean” value ([2]; n = 77) was 0.2 mmol/L and the “Serum Potassium, WK4, mean” value ([2]; n = 77, 20 mg once daily) was 4.8 mmol/L. The “Dose dependence of systemic exposure” value [3] was “increased linearly with increasing dose from 20 to 60 mg”, the “Food effect on total systemic exposure” value [3] was “no appreciable food effect” and the “Increase in peak plasma levels (Cmax) with food” value [3] was “approximately 71%”. For the same compound, the “Time of peak plasma concentrations after dose administration” value [3] was 1 to 6 h, the “Change in blood pressure” value ([4]; 20 mg or 80 mg once daily) was “did not differ from changes observed in placebo-treated patients” and the “QTcF, placebo-corrected changes (ΔΔQTcF)” value ([4]; 20 or 80 mg) was “did not increase QTcF”. The “LVEF at HF hospitalization, mean” value ([5]; n = 23) was 52% ±, the “Serum Sodium at HF hospitalization, mean” value ([5]; n = 30) was 139.0 mmol/L and the “Serum Sodium Δ (HF vs baseline), mean” value ([5]; n = 30) was -1.0 mmol/L. The “Heart Rate at HF hospitalization, mean” value ([5]; n = 32) was 81 bpm, the “Heart Rate Δ (HF vs baseline), mean” value ([5]; n = 32) was 14.5 bpm and the “SBP at HF hospitalization, mean” value ([5]; n = 33) was 154 mmHg. The “SBP Δ (HF vs baseline), mean” value ([5]; n = 33) was 10.5 mmHg, the “DBP at HF hospitalization, mean” value ([5]; n = 34) was 75 mmHg and the “DBP Δ (HF vs baseline), mean” value ([5]; n = 34) was 7.9 mmHg. The “Serum Potassium at HF hospitalization, mean” value ([5]; n = 34) was 4.8 mmol/L, the “Serum Potassium Δ (HF vs baseline), mean” value ([5]; n = 34) was 0.1 mmol/L and the “Serum Creatinine at HF hospitalization, mean” value ([5]; n = 38) was 2.7 mg/dL. For the same compound, the “Serum Creatinine Δ (HF vs baseline), mean” value ([5]; n = 38) was -0.1 mg/dL, the “ΔDBP, change from baseline” value [6, 7] was 0.2 ± 1.8 and the “ΔSBP, change from baseline” value [6, 7] was 0.1 ± 4.2. The “ΔDBP, change from baseline” value [6, 8] was 1 ± 2, the “ΔSBP, change from baseline” value [6, 8] was 0 ± 4.4 and the “ΔDBP, change from baseline” value [6, 9] was −1.5 ± 3.9. For the same compound, the “ΔSBP, change from baseline” value [6, 9] was 0.3 ± 11, the “ΔDBP, change from baseline” value [6, 10] was −1.4 ± 1.5 and the “ΔSBP, change from baseline” value [6, 10] was −1.5 ± 2.3. The “ΔDBP, change from baseline” value [6, 11] was −1.3 ± 1.4, the “ΔSBP, change from baseline” value [6, 11] was −2.1 ± 2 ^ and the “ΔDBP, change from baseline” value [6, 12] was −1.4 ± 5.6. The “ΔSBP, change from baseline” value [6, 12] was 0.5 ± 9.1, the “ΔDBP, change from baseline” value [6, 13] was 0.3 ± 1.3 and the “ΔSBP, change from baseline” value [6, 13] was −2.4 ± 3.1.
